# In publication PMC5445127 (Frontiers in Plant Science, 2017):
# Key:
# [1] = target: T1, ZmSIRK1 (ZmSIRK1^737-1045) (Zea mays, UniProt K7VIQ3); experiment: isothermal titration calorimetry; assay type: binding
# T1 construct: gene ZEAMMB73_Zm00001d047570; kinase domain Ser737-Ser1045 (full length 1045 aa; KD 762-1040), E. coli BL21(DE3)-R3-pRARE2, pNIC28a-Bsa4, 6xHis tag removed by TEV; forward primer encodes S737-V-V-F-T-A-E (translated); motifs 907DYS909, 933PPE935; model residues 744-972, 977-1000, 1009-1045
# T1 sequence (K7VIQ3 entry or part of it): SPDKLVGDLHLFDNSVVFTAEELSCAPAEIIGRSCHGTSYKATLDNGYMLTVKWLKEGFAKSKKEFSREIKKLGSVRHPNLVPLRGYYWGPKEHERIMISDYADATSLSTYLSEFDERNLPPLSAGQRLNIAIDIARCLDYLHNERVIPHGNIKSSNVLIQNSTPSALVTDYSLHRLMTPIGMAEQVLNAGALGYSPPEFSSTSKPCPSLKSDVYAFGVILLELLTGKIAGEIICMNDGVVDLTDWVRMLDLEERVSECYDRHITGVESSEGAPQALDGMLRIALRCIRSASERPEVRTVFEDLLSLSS
# [2] = target: T1, ZmSIRK1 (ZmSIRK1^737-1045); experiment: isothermal titration calorimetry; co-crystal structure; assay type: binding
Structure (SMILES),Kd [1] [nM],Kd [2] [nM]
Nc1ncnc2c1c(-c1cnc3[nH]ccc3c1)nn2C1CCCC1 [PP121],1990,
Nc1ncnc2c1ncn2[C@@H]1O[C@H](COP(=O)(O)OP(=O)(O)NP(=O)(O)O)[C@@H](O)[C@H]1O [AMP-PNP],,2800
CC(C)n1nc(-c2ccc3oc(N)nc3c2)c2c(N)ncnc21 [INK 128],1760,
